Each structure is given as a SMILES string.

In the assay the target is T1, human MDM2 (GST-hMDM2 1-188), interaction with biotinylated-p53 (1-83) (Homo sapiens, UniProt Q00987).
T1 construct: Amino acid residues 1-188 of human MDM2 were expressed; made in house; host or cells: Escherichia coli
T1 sequence (Q00987 1-188): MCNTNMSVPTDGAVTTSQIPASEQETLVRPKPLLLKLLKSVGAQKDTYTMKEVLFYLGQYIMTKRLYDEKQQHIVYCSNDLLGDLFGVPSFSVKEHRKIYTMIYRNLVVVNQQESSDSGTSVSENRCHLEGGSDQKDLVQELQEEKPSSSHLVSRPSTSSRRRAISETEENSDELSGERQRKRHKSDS
In words: improved HTRF assay (HTRF2 assay), inhibition of HDM2-p53 interaction. It counts as binding. The settings on record: 0.2 nM GST-hMDM2, 0.5 nM biotinylated-p53, 100 mM KF. A digest of the protocol:
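Time-resolved fluorescence (HTRF) read after >4 h equilibration with SA-XLent/anti-GST cryptate/KF detection reagents. Reaction: compound plus GST-hMDM2 for 20 min at room temperature, then E. coli-expressed biotinylated p53 residues 1-83 for 60 min, 2% DMSO final. Inhibition expressed versus nutlin-3.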
In general terms: TR-FRET usually uses a lanthanide donor and a delayed reading to cut background.
As to `CC[C@@H](CN(c1ccccc1F)S(=O)(=O)C1CC1)N1C(=O)[C@H](CC(=O)NS(=O)(=O)C(C)C)O[C@H](c2cccc(Cl)c2)[C@H]1c1ccc(Cl)cc1` (single isomer, unassigned) [Example 258, 2-((2S,5R,6R)-6-(3-chlorophenyl)-5-(4-chlorophenyl)-4-((S)-1-(N-(2-fluorophenyl)cyclopropanesulfonamido)butan-2-yl)-3-oxomorpholin-2-yl)-N-(isopropylsulfonyl)acetamide or 2-((2R,5R,6R)-6-(3-chlorophenyl)-5-(4-chlorophenyl)-4-((5)-1-(N-(2-fluorophenyl)cyclopropanesulfonamido)butan-2-yl)-3-oxomorpholin-2-yl)-N-(isopropylsulfonyl)acetamide], the IC50 (commonly the concentration at which inhibition is half-maximal) was 1 nM. `CC[C@@H](CN(c1ccccc1F)S(=O)(=O)C1CC1)N1C(=O)[C@@H](CC(=O)NS(=O)(=O)C(C)C)O[C@H](c2cccc(Cl)c2)[C@H]1c1ccc(Cl)cc1` (single isomer, unassigned) [Example 259, 2-((2R,5R,6R)-6-(3-chlorophenyl)-5-(4-chlorophenyl)-4-((S)-1-(N-(2-fluorophenyl)cyclopropanesulfonamido)butan-2-yl)-3-oxomorpholin-2-yl)-N-(isopropylsulfonyl)acetamide or 2-((2S,5R,6R)-6-(3-chlorophenyl)-5-(4-chlorophenyl)-4-((S)-1-(N-(2-fluorophenyl)cyclopropanesulfonamido)butan-2-yl)-3-oxomorpholin-2-yl)-N-(isopropylsulfonyl)acetamide] gave an IC50 of 1 nM.

Compound `CC[C@@H](CS(=O)(=O)C(C)(C)C)N1C(=O)[C@H](CC(N)=O)O[C@H](c2cccc(Cl)c2)[C@H]1c1ccc(Cl)cc1` (single isomer, unassigned) [Example 260, 2-((2S,5R,6R)-4-((S)-1-(tert-butylsulfonyl)butan-2-yl)-6-(3-chlorophenyl)-5-(4-chlorophenyl)-3-oxomorpholin-2-yl)acetamide or 2-((2R,5R,6R)-4-((S)-1-(tert-butylsulfonyl)butan-2-yl)-6-(3-chlorophenyl)-5-(4-chlorophenyl)-3-oxomorpholin-2-yl)] displayed an IC50 of 8 nM.

`CC[C@@H](CS(=O)(=O)C(C)(C)C)N1C(=O)[C@@H](CC(N)=O)O[C@H](c2cccc(Cl)c2)[C@H]1c1ccc(Cl)cc1` (single isomer, unassigned) [Example 261, 2-((2R,5R,6R)-4-((S)-1-(tert-butylsulfonyl)butan-2-yl)-6-(3-chlorophenyl)-5-(4-chlorophenyl)-3-oxomorpholin-2-yl)acetamide or 2-((2S,5R,6R)-4-((S)-1-(tert-butylsulfonyl)butan-2-yl)-6-(3-chlorophenyl)-5-(4-chlorophenyl)-3-oxomorpholin-2-yl)acetamide] displayed an IC50 of 6 nM. The compound `CC[C@@H](CN(c1ccccc1F)S(=O)(=O)C1CC1)N1C(=O)[C@@H](CCC(=O)O)O[C@H](c2cccc(Cl)c2)[C@H]1c1ccc(Cl)cc1` (single isomer, unassigned) [Example 262, 3-((2R,5R,6R)-6-(3-chlorophenyl)-5-(4-chlorophenyl)-4-((S)-1-(N-(2-fluorophenyl)cyclopropanesulfonamido)butan-2-yl)-3-oxomorpholin-2-yl)propanoic acid or 3-((2S,5R,6R)-6-(3-chlorophenyl)-5-(4-chlorophenyl)-4-((S)-1-(N-(2-fluorophenyl)cyclopropanesulfonamido)butan-2-yl)-3-oxomorpholin-2-yl)propanoic acid] displayed an IC50 of 2 nM.

In turn, `CC[C@@H](CN(c1ccccc1F)S(=O)(=O)C1CC1)N1C(=O)[C@@H](CCC(=O)O)O[C@H](c2cccc(Cl)c2)[C@H]1c1ccc(Cl)cc1` (single isomer, unassigned) [Example 263, 3-((2R,5R,6R)-6-(3-chlorophenyl)-5-(4-chlorophenyl)-4-((S)-1-(N-(2-fluorophenyl)cyclopropanesulfonamido)butan-2-yl)-3-oxomorpholin-2-yl)propanoic acid or 3-((2S,5R,6R)-6-(3-chlorophenyl)-5-(4-chlorophenyl)-4-((S)-1-(N-(2-fluorophenyl)cyclopropanesulfonamido)butan-2-yl)-3-oxomorpholin-2-yl)propanoic acid] returned an IC50 of 2 nM. `CC[C@@H](CN(c1ccccc1Cl)S(=O)(=O)C1CC1)N1C(=O)[C@@H](CC(=O)O)O[C@H](c2cccc(Cl)c2)[C@H]1c1ccc(Cl)cc1` (single isomer, unassigned) [Example 264, 2-((2R,5R,6R)-6-(3-chlorophenyl)-5-(4-chlorophenyl)-4-((S)-1-(N-(2-chlorophenyl)cyclopropanesulfonamido)butan-2-yl)-3-oxomorpholin-2-yl)acetic acid or 2-((2S,5R,6R)-6-(3-chlorophenyl)-5-(4-chlorophenyl)-4-((S)-1-(N-(2-chlorophenyl)cyclopropanesulfonamido)butan-2-yl)-3-oxomorpholin-2-yl)acetic acid]: the IC50 amounted to 19 nM.

`CC[C@@H](CN(c1ccccc1Cl)S(=O)(=O)C1CC1)N1C(=O)[C@@H](CC(=O)O)O[C@H](c2cccc(Cl)c2)[C@H]1c1ccc(Cl)cc1` (single isomer, unassigned) [Example 265, 2-((2R,5R,6R)-6-(3-chlorophenyl)-5-(4-chlorophenyl)-4-((S)-1-(N-(2-chlorophenyl)cyclopropanesulfonamido)butan-2-yl)-3-oxomorpholin-2-yl)acetic acid or 2-((2S,5R,6R)-6-(3-chlorophenyl)-5-(4-chlorophenyl)-4-((S)-1-(N-(2-chlorophenyl)cyclopropanesulfonamido)butan-2-yl)-3-oxomorpholin-2-yl)acetic acid]: the IC50 turned out to be 1 nM. `CC(C)(C)S(=O)(=O)C[C@H](C1CCC1)N1C(=O)[C@@H](CC(=O)O)O[C@H](c2cccc(Cl)c2)[C@H]1c1ccc(Cl)cc1` (single isomer, unassigned) [Example 270, 2-((2R,5R,6R)-4-((S)-2-(tert-Butylsulfonyl)-1-cyclobutylethyl)-6-(3-chlorophenyl)-5-(4-chlorophenyl)-3-oxomorpholin-2-yl)acetic acid or 2-((2S,5R,6R)-4-((S)-2-(tert-butylsulfonyl)-1-cyclobutylethyl)-6-(3-chlorophenyl)-5-(4-chlorophenyl)-3-oxomorpholin-2-yl)acetic acid] came in with an IC50 of 2 nM. As for `CC(C)(C)S(=O)(=O)C[C@H](C1CCC1)N1C(=O)[C@@H](CC(=O)O)O[C@H](c2cccc(Cl)c2)[C@H]1c1ccc(Cl)cc1` (single isomer, unassigned) [Example 271, 2-((2R,5R,6R)-4-((S)-2-(tert-Butylsulfonyl)-1-cyclobutylethyl)-6-(3-chlorophenyl)-5-(4-chlorophenyl)-3-oxomorpholin-2-yl)acetic acid or 2-((2S,5R,6R)-4-((S)-2-(tert-butylsulfonyl)-1-cyclobutylethyl)-6-(3-chlorophenyl)-5-(4-chlorophenyl)-3-oxomorpholin-2-yl)acetic acid], the figure is 5 nM.

The values above are taken from patent US9376425B2, “Heterocyclic compounds as MDM2 inhibitors for the treatment of cancer” (AMGEN INC., priority 2011, dated 2016).
